{"source": "patent US11318190B2", "about": "“Methods and compositions for treating liver disease” (UNITED STATES GOVERNMENT AS REPRESENTED BY THE DEPARTMENT …, priority 2017, dated 2022)", "key": {"[1]": {"system": "dnTGF-βRII mice", "assay": "dnTGF-βRII mice 12 wk (early stage PBC model) treated 1 wk by osmotic minipump", "assay_type": "in vivo, mouse", "settings": "dnTGF-βRII 12 wk", "procedure": "(§1) Briefly, we used wild-type (WT), dnTGFβRII 12 wk and dnTGFβRII 34 wk mice treated with control or SR antagonist (SCT 5-27) minipump (10 μg/kg/day) for 1 wk. Hepatic damage was shown by H&E. IBDM and cholangiocyte proliferation were measured by immunohistochemistry for CK-19 and Ki67, respectively. Biliary apoptosis was evaluated by TUNEL staining. Senescence was measured in cholangiocytes by immunofluorescence for CCL2 or p16 co-stained with CK-19 (to image bile ducts) and SA-β-Galactosidase activity. Hepatic fibrosis was assessed by qPCR for collagen-1a and α-SMA in total liver, and quantification of Sirius Red staining. Hepatic stellate cell (HSC) activation was evaluated by immunofluorescence (IF) for Syp-9. HSC senescence was evaluated by IF for CCL2 or p16 co-stained with desmin (to visualize HSCs). Secretin levels in serum and bile were measured by EIA. Bile and serum were obtained from human control, early PBC and advanced PBC patients, and secretin was evaluated by EIA.\n(§2) All animal procedures were performed according to protocols approved by the Baylor Scott & White Health IACUC Committee. Transgenic mice expressing a dominant-negative form of the human transforming growth factor-beta receptor II (dnTGF-βRII) were obtained from Dr. M. Eric Gershwin at UC Davis Health (Sacramento, Calif.), and background-matched wild-type (WT, strain C57BL/6) mice were purchased from Charles River Laboratories (Wilmington, Mass.); the breeding colony is established in our animal facility. Animals were maintained in micro-isolator cages in a temperature-controlled environment with 12/12-hr light/dark cycles and fed ad libitum standard chow with free access to drinking water. Studies were performed in 12 wk-old WT mice, and 12 wk-old (mimic early stage PBC) and 32 wk-old (mimic late stage PBC) female and male dnTGF-βRII mice (25-30 gm) that were treated with either saline, secretin (Sct; 2.5 nmoles/kg body weight per day; Bachem, Torrance, Calif.) or the secretin receptor (SR) antagonist, Sec 5-27 (10 μg/kg body weight per day; Thermo Fisher Scientific, Waltham, Mass.) for 1 wk by intraperitoneally implanted osmotic minipump. Liver tissue samples and blocks (formalin-fixed, paraffin-embedded and OCT-embedded), serum, bile, cholangiocytes, and cholangiocyte supernatants (after incubation at 37° C. for 4 hr) were collected as described.\n(§3) Hematoxylin and eosin (H&E) staining was performed in formalin-fixed, paraffin-embedded liver sections (4-5 μm, 3 samples from 3 different animals) to determine liver morphology. H&E stained liver sections were evaluated by a board-certified pathologist to assess the degree of lobular damage, hepatic necrosis and portal inflammation. At least 10 different portal areas were evaluated for each parameter. Liver sections were examined in a coded fashion by BX-51 light microscopy (Olympus, Tokyo, Japan) equipped with a camera (See, Mancinelli, R et al., Ischemia reperfusion of the hepatic artery induces the functional damage of large bile ducts by changes in the expression of angiogenic factors. Am J Physiol Gastrointest Liver Physiol 2015; 309:G865-873 (2015); Taffetani S et al., Prolactin stimulates the proliferation of normal female cholangiocytes by differential regulation of Ca2+-dependent PKC isoforms, BMC Physiol 7:6 (2007)).\n(§4) Serum levels of alkaline phosphatase (ALP) and γ-glutamyltransferase (γGT) are commonly used to diagnose PBC (Heathcote, E J, Management of primary biliary cirrhosis. The American Association for the Study of Liver Diseases practice guidelines, Hepatology 31:1005-1013 (2000)); therefore, were measured serum levels of ALP and γGT in mouse serum samples using the Alkaline Phosphatase Assay Kit and γ-Glutamyltransferase Activity Colorimetric Assay Kit, respectively (Abcam; Cambridge, Mass.).\n(§5) Early stage PBC is identified by cholangiocyte proliferation, whereas late stage PBC is characterized by ductopenia. […]"}, "[2]": {"system": "dnTGF-βRII mice", "assay": "dnTGF-βRII mice 32-34 wk (late stage PBC model) treated 1 wk by osmotic minipump", "assay_type": "in vivo, mouse", "settings": "for intrahepatic bile duct mass (IBDM, CK-19): 1 wk minipump", "procedure": "as §1, §2, §3, §4, §5"}, "[3]": {"system": "human hepatic stellate cells (hHSC)", "assay": "hHSC activation by cholangiocyte supernatants from treated mice (qPCR)", "assay_type": "cell-based", "procedure": "In vitro experiments were performed in human hepatic stellate cells (hHSC) that were purchased from ScienCell Research Laboratories (Carlsbad, Calif.) that were maintained in standard conditions.\n[…] Activation of hHSCs was determined by qPCR for FN-1, TGF-β1, α-SMA, and collagen type-1a (Kennedy, L L et al., Knockout of microRNA-21 reduces biliary hyperplasia and liver fibrosis in cholestatic bile duct ligated mice, Lab Invest 96:1256-1267 (2016))."}, "[4]": {"system": "HHSteCs", "assay": "HHSteCs incubated with biliary/IMCL supernatants with/without LY2109761, or with TGF-β1 (Example 2)", "assay_type": "cell-based, human", "procedure": "Biliary supernatants were obtained from normal and BDL WT mice and Sct^−/−, SR^−/− and Sct^−/−/SR^−/− BDL mice as well as normal WT mice treated with saline or secretin. HHSteCs were incubated with the aforementioned biliary supernatants (containing different levels of TGF-β1) for 24 hr (in the absence or presence of LY2109761) before measuring the expression of senescence and fibrosis genes by real-time PCR. Furthermore, HHSteCs were incubated with the supernatant of large IMCLs treated for 0.2% bovine serum albumin (basal) or secretin (10 nM) with/without LY2109761 for 6 hr before measuring the mRNA expression of fibrosis and senescence genes. To provide direct evidence that TGF-β1 directly modulates fibrosis and senescence of IMCLs and HHSteCs, these cells were stimulated with TGF-β1 (10 nM) for 24 hr before measuring the expression of PCNA as well as fibrosis and senescence genes by real-time PCR."}, "[5]": {"settings": "dnTGF-βRII 32/34 wk, vs saline treated"}, "[6]": {"settings": "cholangiocyte supernatant from secretin-treated WT mice, 24 hr"}, "[7]": {"settings": "supernatant of large IMCLs after secretin 10 nM, 6 hr"}}, "note": "“Also recorded” adds a separate entry of the source.", "data": [{"substance": "secretin [Sct]", "values": [{"measurement": "HSC activation (SYP-9 staining)", "setting": "[1]", "result": "further enhanced"}, {"measurement": "biliary senescence (p16, p18, p21, CCL2)", "setting": "[1]", "result": "further increased"}, {"measurement": "cholangiocyte apoptosis (TUNEL-positive cholangiocytes)", "setting": "[1]", "result": "further reduced"}, {"measurement": "liver damage (H&E: portal inflammation, inflammatory infiltration, lobular necrosis)", "setting": "[1]", "result": "further increased"}, {"measurement": "Sct, SR, CFTR and AE2 expression", "setting": "[1]; vs saline treated", "result": "further increase"}, {"measurement": "collagen content / deposition (Sirius Red), hepatic fibrosis", "setting": "[1]; vs saline treated", "result": "further enhanced"}, {"measurement": "serum levels of ALP and γGT", "setting": "[1]; vs saline treated", "result": "further increased"}, {"measurement": "intrahepatic bile duct mass (IBDM, CK-19)", "setting": "[1]; vs saline treated, 1 wk minipump", "result": "further increase"}, {"measurement": "biliary senescence (p16, p18, p21, CCL2)", "setting": "[2]; dnTGF-βRII 32/34 wk", "result": "reduced"}, {"measurement": "cholangiocyte apoptosis (TUNEL)", "setting": "[2]; dnTGF-βRII 32/34 wk", "result": "reduced"}, {"measurement": "collagen content / deposition (Sirius Red), hepatic fibrosis", "setting": "[2]; dnTGF-βRII 32/34 wk", "result": "decreased; also recorded: reduced"}, {"measurement": "Sct, SR, CFTR and AE2 expression", "setting": "[2]; [5]", "result": "increased expression"}, {"measurement": "intrahepatic bile duct mass (IBDM, CK-19)", "setting": "[2]; [5]", "result": "increased"}, {"measurement": "intrahepatic bile duct mass (IBDM, CK-19)", "setting": "[2]; dnTGF-βRII 32/34 wk, vs saline treated, listed as secretin", "result": "increased biliary mass in the late stage PBC mice back to normal levels"}, {"measurement": "collagen content / deposition (Sirius Red), hepatic fibrosis", "setting": "[2]; dnTGF-βRII 32/34 wk, listed as secretin", "result": "significantly reduced"}, {"measurement": "HSC activation (SYP-9)", "setting": "[2]; dnTGF-βRII 34 wk", "result": "reduced"}, {"measurement": "biliary growth / cholangiocyte proliferation", "setting": "[2]; dnTGF-βRII 34 wk", "result": "increased"}, {"measurement": "liver damage (H&E)", "setting": "[2]; dnTGF-βRII 34 wk", "result": "ameliorate; also recorded: reduced"}, {"measurement": "secretin levels (serum; serum and bile)", "setting": "[2]; dnTGF-βRII 34 wk", "result": "increased"}, {"measurement": "Liver inflammation, Kupffer cell number", "setting": "[2]; dnTGFβRII 12 and 34 wk as printed", "result": "reduced"}, {"measurement": "TBA levels", "setting": "[2]; dnTGFβRII 34 wk", "result": "reduced"}, {"measurement": "serum levels of ALP and γGT", "setting": "[2]; late stage PBC model", "result": "reduced"}, {"measurement": "expression of FN-1, TGF-β1, α-SMA and collagen type-1a in hHSCs", "setting": "[3]; cholangiocyte supernatants from treated dnTGF-βRII mice 12 wks", "result": "further enhanced"}, {"measurement": "expression of FN-1, TGF-β1, α-SMA and collagen type-1a in hHSCs", "setting": "[3]; cholangiocyte supernatants from treated dnTGF-βRII mice 34 wks", "result": "reduced"}, {"measurement": "expression of fibrosis genes in HHSteCs", "setting": "[4]; [6]", "result": "increased expression"}, {"measurement": "expression of senescence genes in HHSteCs", "setting": "[4]; [6]", "result": "reduced expression"}, {"measurement": "expression of senescence genes of HHSteCs", "setting": "[4]; [7]", "result": "decreases"}, {"measurement": "fibrosis gene expression of HHSteCs", "setting": "[4]; [7]", "result": "increases"}]}]}
